In ChEMBL document CHEMBL3886457, “Ethynyl derivatives” (2016):

Target: Metabotropic glutamate receptor 5 (Homo sapiens, UniProt P41594)
Experiment: Binding Assay: For binding experiments, cDNA encoding human mGlu 5a receptor was transiently transfected into EBNA cells using a procedure described by Schlaeger and Christensen [Cytotechnology 15:1-13 (1998)]. Cell membrane homogenates were stored at -80° C. until the day of assay where upon they were thawed and resuspended and polytronised in 15 mM Tris-HCl, 120 mM NaCl, 100 mM KCl, 25 mM CaCl2, 25 mM MgCl2 binding buffer at pH 7.4 to a final assay concentration of 20 ug protein/well.Saturation isotherms were determined by addition of twelve [3H]MPEP concentrations (0.04-100 nM) to these membranes (in a total volume of 200 ul) for 1 h at 4° C. Competition experiments were performed with a fixed concentration of [3H]MPEP (2 nM) and IC50 values of test compounds evaluated using 11 concentrations (0.3-10,000 nM). Incubations were performed for 1 h at 4° C.At the end of the incubation, membranes were filtered onto unifilter (96-well white microplate with bonded GF/C filter preincubated 1 h in 0.1% PEI in wash buffer, Packard BioScience, Meriden, Conn.) with a Filtermate 96 harvester (Packard BioScience) and washed 3 times with cold 50 mM Tris-HCl, pH 7.4 buffer. Nonspecific binding was measured in the presence of 10 uM MPEP. […]

Sequence of Metabotropic glutamate receptor 5 (P41594 whole entry): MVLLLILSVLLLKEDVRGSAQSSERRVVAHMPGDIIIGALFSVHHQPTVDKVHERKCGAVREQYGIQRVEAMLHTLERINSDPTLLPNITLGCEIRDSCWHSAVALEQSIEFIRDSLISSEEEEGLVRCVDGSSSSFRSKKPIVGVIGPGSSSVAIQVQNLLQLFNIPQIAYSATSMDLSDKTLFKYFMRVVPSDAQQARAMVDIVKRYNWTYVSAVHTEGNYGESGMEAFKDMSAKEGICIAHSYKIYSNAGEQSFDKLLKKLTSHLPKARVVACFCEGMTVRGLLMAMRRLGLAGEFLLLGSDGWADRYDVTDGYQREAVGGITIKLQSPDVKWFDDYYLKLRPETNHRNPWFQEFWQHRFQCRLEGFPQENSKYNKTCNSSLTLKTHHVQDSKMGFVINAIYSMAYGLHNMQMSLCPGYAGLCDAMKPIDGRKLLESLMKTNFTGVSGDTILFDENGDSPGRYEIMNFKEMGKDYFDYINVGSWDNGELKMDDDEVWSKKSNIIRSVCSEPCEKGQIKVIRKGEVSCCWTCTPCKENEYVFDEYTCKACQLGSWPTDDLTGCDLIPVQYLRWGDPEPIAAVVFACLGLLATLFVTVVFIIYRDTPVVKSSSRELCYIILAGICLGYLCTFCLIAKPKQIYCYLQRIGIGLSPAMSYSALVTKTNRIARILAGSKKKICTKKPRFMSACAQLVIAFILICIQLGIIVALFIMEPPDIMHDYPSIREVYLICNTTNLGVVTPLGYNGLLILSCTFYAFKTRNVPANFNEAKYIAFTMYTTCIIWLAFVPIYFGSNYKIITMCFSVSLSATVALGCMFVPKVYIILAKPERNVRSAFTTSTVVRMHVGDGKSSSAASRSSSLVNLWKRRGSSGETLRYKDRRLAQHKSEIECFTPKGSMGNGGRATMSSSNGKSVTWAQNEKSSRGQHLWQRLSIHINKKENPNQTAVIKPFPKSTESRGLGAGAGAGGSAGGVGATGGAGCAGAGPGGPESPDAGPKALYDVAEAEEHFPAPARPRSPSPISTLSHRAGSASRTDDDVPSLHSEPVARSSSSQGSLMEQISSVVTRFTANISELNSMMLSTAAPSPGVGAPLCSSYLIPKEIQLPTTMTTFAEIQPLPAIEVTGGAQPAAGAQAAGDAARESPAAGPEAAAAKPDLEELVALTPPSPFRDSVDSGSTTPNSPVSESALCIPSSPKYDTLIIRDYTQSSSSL

Ki: 19 nM
Compound: O=C(c1ccc(C#Cc2cccc(Cl)c2)cn1)N1CCOCC1
